Series [1] can be described thus: Cytotoxicity in 3T3-L1 cells. The conditions noted are these: mouse, read-out: cell viability. Type of series: cell-based. As for the experimental part:
Prior to testing the PPARγ antagonist potential of isoquinolinoquinazolinones, their cytotoxicity in 3T3-L1 cells (normal cells) was examined. […] These two compounds were then tested for PPARγ inhibitory activity.

Another series concerns 3T3-L1 cells. The series can be described thus: Expression of adipogenesis markers (immunoblotting, RT-PCR) in MDI-differentiated 3T3-L1 cells. Type of series: cell-based, mouse. The conditions noted are these: after MDI-induced differentiation. As to the method: PPARγ alone or together with CCAAT-enhancer-binding protein α (C/EBPα) regulates many adipocyte genes that are involved in creating and maintaining the adipocyte phenotype. To further analyze the effect of isoquinolinoquinazolinones on adipogenesis, the expression of the adipocyte marker genes (C/EBPα and PPARγ) was analyzed. The differentiation of 3T3-L1 cells into adipocytes was induced by incubating in MDI induction medium for 2 days followed by incubation in differentiation medium for an additional 6 days. After MDI-induced adipocyte differentiation of 3T3-L1 cells, adipogenic transcriptional factors were analyzed. The transcriptional factors C/EBPα and PPARγ were inhibited by 8n and 8o in terms of both protein (Fig. 2C,D) and RNA (Fig. 2E,F) levels.
Total cellular RNA was prepared using TRIzol reagent (Life Technologies) according to the manufacturer’s instructions. Random-primed cDNAs were synthesized from 1 μg of total RNA using Super-Script III First-Strand Synthesis System (Life Technologies). The following conditions were used for PCR: initial denaturation at 94 °C for 1 min; 28–30 cycles of denaturation at 94 °C for 30 s, annealing at a temperature optimized for each primer pair for 30 s, extension at 72 °C for 30 s; final extension at 72 °C for 5 min. […] RNA levels were quantified by image software, Multi Gauge, V3.0 (FUJIFILM).
At the end of differentiation, 3T3-L1 cells were washed with PBS and lysed in a lysis buffer (1% NP-40, 25 mM HEPES (pH 7.5), 10% glycerol, 150 mM NaCl, 25 mM NaF, 0.25% sodium deoxycholate, 1 mM EDTA, 1 mM Na3VO4, 10 μg/mL aprotinin, 10 μg/mL leupeptin, and 250 μM phenylmethanesulfonyl fluoride). […] Horseradish peroxidase-labeled secondary antibodies were detected and visualized using chemiluminescent western blotting reagent (Millipore). Protein expression levels were quantified by image software, Multi Gauge, V3.0 (FUJIFILM).

The target of another series is T1, R288G mutant PPARγ2 (Mus musculus, UniProt P37238, R316G).
T1 sequence (P37238 1-505 R316G): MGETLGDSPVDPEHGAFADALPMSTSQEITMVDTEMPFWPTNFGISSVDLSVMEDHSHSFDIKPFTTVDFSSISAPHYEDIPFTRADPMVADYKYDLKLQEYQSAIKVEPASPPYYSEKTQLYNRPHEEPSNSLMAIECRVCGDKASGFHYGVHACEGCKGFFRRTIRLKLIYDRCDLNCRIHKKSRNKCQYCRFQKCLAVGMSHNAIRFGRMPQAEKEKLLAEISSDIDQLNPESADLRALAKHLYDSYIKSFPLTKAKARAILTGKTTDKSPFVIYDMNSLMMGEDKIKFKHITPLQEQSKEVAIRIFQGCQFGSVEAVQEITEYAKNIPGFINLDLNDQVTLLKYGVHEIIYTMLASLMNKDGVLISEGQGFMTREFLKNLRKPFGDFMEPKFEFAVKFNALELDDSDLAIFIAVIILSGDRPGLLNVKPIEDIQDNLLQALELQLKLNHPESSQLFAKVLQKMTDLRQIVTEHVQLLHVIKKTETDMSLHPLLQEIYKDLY
T1 sequence (P28700 1-467 partner): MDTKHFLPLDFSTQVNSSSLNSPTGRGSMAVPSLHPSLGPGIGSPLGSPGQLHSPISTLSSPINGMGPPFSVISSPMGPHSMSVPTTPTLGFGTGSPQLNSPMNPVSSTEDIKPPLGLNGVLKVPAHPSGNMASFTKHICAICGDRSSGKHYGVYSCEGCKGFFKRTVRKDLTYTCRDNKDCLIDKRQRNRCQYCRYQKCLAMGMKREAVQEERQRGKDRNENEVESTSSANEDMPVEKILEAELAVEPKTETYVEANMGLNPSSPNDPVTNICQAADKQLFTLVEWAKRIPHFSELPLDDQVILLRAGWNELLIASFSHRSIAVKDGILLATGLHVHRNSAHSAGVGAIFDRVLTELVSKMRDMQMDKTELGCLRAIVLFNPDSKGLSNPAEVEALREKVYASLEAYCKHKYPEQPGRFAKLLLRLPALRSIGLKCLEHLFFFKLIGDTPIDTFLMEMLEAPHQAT
Description: PPRE-Luc reporter assay with R288G mutant PPARγ2 in 3T3-L1 cells. The conditions noted are these: 5 μM, 12 h.

The viability is a per cent measure of how many cells are alive, often set against a control. As to `COc1cc2cc3n(c(=O)c2cc1OC)CNc1ccc(Cl)cc1-3` [Compound 8n, 2-Chloro-10,11-dimethoxy-5H-isoquinolino[2,3-c]quinazolin-8(6H)-one], in series [1], the viability at 25 µM is greater than 70%. Moreover, the “C/EBPα and PPARγ expression, protein and RNA levels” value in the series with 3T3-L1 cells is recorded as “inhibited”.
Take `COc1cc2cc3n(c(=O)c2cc1OC)CNc1cc(Cl)ccc1-3` [Compound 8o, 3-Chloro-10,11-dimethoxy-5H-isoquinolino[2,3-c]quinazolin-8(6H)-one]: the viability at 25 µM in series [1] was greater than 70%. In addition, in the series on 3T3-L1 cells, the “C/EBPα and PPARγ expression, protein and RNA levels” value is “inhibited”; the “mRNA expression of adiponectin and fatty acid synthase (FAS)” value is on record as “strongly reduced”. The “effect of Arg288 to Gly substitution on the compound's inhibition of PPARγ2 activity” value at R288G mutant PPARγ2 is reported as “abolished the inhibitory effect”.
